Experimental findings from publication PMC7463913, “The Interaction of Fluorinated Glycomimetics with DC-SIGN: Multiple Binding Modes Disentangled by the Combination of NMR Methods and MD Simulations” (Pharmaceuticals, 2020) are described below.

Experiment [1] concerns the target T1, DC-SIGN (ECD) (Homo sapiens, UniProt Q9NNX6).
T1 construct: DC-SIGN full extracellular domain (ECD, residues 70-404, Thermo Fischer Scientific); made in house
T1 sequence (Q9NNX6 70-404): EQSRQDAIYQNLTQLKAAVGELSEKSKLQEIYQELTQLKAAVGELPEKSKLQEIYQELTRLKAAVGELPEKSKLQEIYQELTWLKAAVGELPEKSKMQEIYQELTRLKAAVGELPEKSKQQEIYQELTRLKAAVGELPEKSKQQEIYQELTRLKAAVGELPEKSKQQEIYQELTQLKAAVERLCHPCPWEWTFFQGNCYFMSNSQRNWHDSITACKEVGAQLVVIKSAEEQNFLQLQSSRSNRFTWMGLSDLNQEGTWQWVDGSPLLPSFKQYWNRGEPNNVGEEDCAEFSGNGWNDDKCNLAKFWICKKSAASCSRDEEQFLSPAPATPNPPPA
In words: competitive 19F-R2 filtered NMR experiments (spy molecule 6-F-ManαOMe). It counts as binding. The conditions noted are these: non-linear least squares fitting; [6-F-ManαOMe] 400 µM, [DC-SIGN (CRDs)] 10 µM; 298 K, pH 8.0. The source says:
In order to gain insights into the effects that the different fluorination patterns may have in the binding event, the affinities of 1b, the natural analogue of 1, as well as 1c and 1d, two partially fluorinated trisaccharides, were also estimated. (Table 2, Figure S1).
(§1) For KD estimation of 6-deoxy-6-F-Man (the spy-molecule), the free evolution delay was set to an optimized value τ=1 ms , after using relaxation dispersion experiments to assure a negligible chemical exchange contribution to R2,obs (Figure S1a). The KI of 1, 1b-d, 2, and 3 with DC-SIGN (ECD) was determined by titration experiments in a competitive fashion. Increasing amounts of the competitor molecules (compounds 1, 1b-d, 2, and 3) were added to a solution mixture of the spy molecule and the protein in each case, calculating the R2,obs of the spy molecule at each competitor concentration while the ratio [Spy-molecule]/[Protein] is fixed (40:1) (Figure S1c).
(§2) 19F-R2 filtered experiments
The KD of compounds 1, 1b-d, 2 and 3 was estimated applying a 19F-R2 filtered approach. 6-F-ManαOMe, which weakly binds to DC-SIGN, was selected as the spy molecule. Relaxation rates R2 were determined employing a CPMG pulse sequence, by fitting the observed 19F signal intensity to the exponential decay curve:
ܫ(ݐ) = ܫ଴݁ି௧ோమ = ܫ଴݁ି௡ଶఛோమ (1) where ܫ(ݐ) refers to intensity at time ݐ, ܫ଴ is intensity at ݐ = 0, and ܴଶ is the transversal relaxation rate (ܴଶ = 1/ܶଶ).
In the limit of fast-exchange where the exchange contribution to the observed transversal relaxation rate ܴଶ,௢௕௦ is insignificant (Figure S1, a)), the following equations apply:
ܴଶ,௢௕௦ = ܴଶ,௙ + ൫ܴଶ,௕ − ܴଶ,௙൯݌௕ (2)
(§3) [ܲ]் + [ܮ]் + ܭ஽ − ඥ([ܲ]் + [ܮ]் + ܭ஽)ଶ − 4[ܲ]்[ܮ]் (3) where [ܲ]் and [ܮ]் are the total protein and ligand concentrarion respectively, [ܴ]ଶ,௙ and [ܴ]ଶ,௕ are the relaxation rates in the free and bound states, ݌௕ is the fraction of bound ligand and ܭ஽ the dissociation constant of the protein-ligand complex. [ܴ]ଶ,௙ of 6-F-ManαOMe was measured in absence of the lectin, and Equation 2 was used to estimate ܭ஽and [ܴ]ଶ,௕ for the […]
Then, ܭூ of compounds 1, 1b-d, 2 and 3 was measured in a competitive manner. ܴଶ,௢௕௦ of 6-F-ManαOMe (spy molecule) in solution with DC-SIGN ECD was monitored at 5 different competitor concentrations ([ܫ]) in each case with a fixed [ܲ]்/[ܮ]் ratio (Figure S1, c)), to derive ܭூ by fitting to Equation 2 with ݌௕ as defined in Equations (4) and (5) (Table 2):
݌௕ = 3ܭ + 2 cos൫ߠൗ ൯ √ܽଶ − 3ܾ − ܽ (4)
ߠ = cos ൬ ଶඥ(௔మିଷ௕)య ൰, ܽ = ܭ஽ + ܭூ + [ܮ]் + [ܫ]் − [ܲ]், ܾ = ([ܫ]் − [ܲ]்)ܭ஽ + ([ܮ]் − [ܲ]்)ܭ஽ + ܭூܭ஽, ܿ = −ܭூܭ஽[ܲ]்
Figure S1. 19F-R2 filtered experiments. a) Relaxation dispersion experiment for 6-F-ManαOMe (the spy molecule). R2,obs of the 19F nucleus is measured for different values of ωCPMG. Ligand and protein sample concentrations were: [6-F-ManαOMe] = 400 µM, [DC-SIGN (CRDs)] = 10 µM (counting concentration of CRDs, i.e, 4 CRDs per DC-SIGN ECD tetramer). For ωCPMG > 1000 s-1, there is virtually negligible exchange contribution to R2. Therefore, all the subsequent R2 filtered experiments were carried out with τCPMG = 1/ωCPMG = 1 ms. b) KD determination of 6-F-ManαOMe with DC-SIGN. R2,obs was measured for increasing amounts of [6-F-ManαOMe]/[DC-SIGN (CRDs)] (blue dots). KD and R2,b were obtained from fitting to Equation 2, which is valid in the fast-exchange regime (Rex = 0) [39a]. The predicted values at each [6-F-ManαOMe]/[DC-SIGN (CRDs)] are shown as red stars for comparison c) Titration curves showing the variation in 19F-R2,obs of the spy molecule 6-F-ManαOMe, when increasing amounts of the competitors (I) 1, 1b-d, 2 and 3 are added to a mixture [6-F-ManαOMe] = 400 µM, [DC-SIGN (CRDs)] = 10 µM. […]

Experiment [2] deals with T1, DC-SIGN (ECD). The experiment in a line: 19F-R2 filtered NMR KD determination of the spy molecule. It counts as binding. The conditions noted are these: spy molecule with DC-SIGN; fast-exchange regime, τCPMG 1 ms. Here is the method:
as §1, §2
The KD of compounds 1, 1b-d, 2 and 3 was estimated applying a 19F-R2 filtered approach. […] Relaxation rates R2 were determined employing a CPMG pulse sequence, by fitting the observed 19F signal intensity to the exponential decay curve: […]
as §3

pKd, pKi: −log10 of the molar value.

A word on the pKi: it is the negative decadic logarithm of the Ki, by convention in mol/L. High values mean a small Ki, low ones a large Ki. On DC-SIGN (ECD) [1], `CO[C@H]1O[C@H](CO[C@H]2O[C@H](CO)[C@@H](O)[C@H](O)[C@@H]2O)[C@@H](O)[C@H](O[C@H]2O[C@H](CO)[C@@H](O)[C@H](O)[C@@H]2O)[C@@H]1O` [1b, reference compound] showed a pKi of 2.96.
On the same count and under the same terms, next, `CO[C@H]1O[C@H](CO[C@H]2O[C@H](CO)[C@@H](O)[C@H](O)[C@@H]2O)[C@@H](O)[C@H](O[C@H]2O[C@H](CO)[C@@H](O)[C@H](O)[C@@H]2O)[C@@H]1F` [1c]: 3.00; `CO[C@H]1O[C@H](CO[C@H]2O[C@H](CO)[C@@H](O)[C@H](O)[C@@H]2O)[C@@H](O)[C@H](O[C@H]2O[C@H](CO)[C@@H](O)[C@H](O)[C@@H]2F)[C@@H]1O` [1d]: 2.96.
By pKd is commonly meant the negative decadic logarithm of the Kd, by convention in mol/L. The low end stands for a high Kd, the high end for a low Kd. Turning to `CO[C@H]1O[C@H](CF)[C@@H](O)[C@H](O)[C@@H]1O` [6-F-ManαOMe], the pKd on DC-SIGN (ECD) [2] is 2.89.
